Patent publication US4719220A, “15(R)-5-fluoroprostacyclins, pharmaceutical compositions and anti-thrombotic methods of use thereof” (G. D. Searle & Co., priority 1986, dated 1988)
Where a name gives a salt, the structure may show the parent alone. One block for each compound: values may come before it.

Columns and labels:
[1] = test system: mean blood pressure / platelet aggregation; details: sodium salts, cited from earlier work; for ratio of blood pressure lowering activity and platelet aggregation inhibiting activity: dose for 20% lowering of mean blood pressure / minimum concentration for 50% inhibition of aggregation, PGI2 = 1; for platelet aggregation inhibition in comparison with blood pressure lowering, compared to PGI2: EP Publication No. 0054795
[2] = test system: ADP-induced platelet aggregation; assay: In vitro ADP aggregation (platelet-rich plasma); assay type: cell-based; details: Table I; rat platelet-rich plasma, ADP 1-2 uM
Experimental: Rationale: The changes in optical density resulting from ADP-stimulation of platelet-rich plasma is used to identify compounds which inhibit or reverse platelet activation.
1. Platelet-rich plasma (PRP) is obtained from citrated whole rat blood.
2. Compound solutions are prepared at the initial screening dose of 1×1O^-4 M.
3. The prostacyclin (PGI2) standard is prepared in 0.lM NaOH-glycine (pH 10.0) over a range of 10^-9 -10^-8 M.
4. ADP in saline is added to PRP over a range of 1-2 uM to determine a concentration eliciting maximum aggregation within one minute.
5. PRP containing standard or test compound is preincubated for 1 minute and then stimulated with ADP. Vehicle controls are tested simultaneously.
6. The aggregation wave generated is monitored until the reversal phase is observed.
7. Platelet aggregation is quantified as the units of depth between the baseline and maximum depth.
8. Dose-response curves are generated for percent inhibition of ADP-induced platelet aggregation.
9. In vitro activity of the compounds screened is assessed by comparison of IC50 (M) with that of PGI2.

[3] = test system: ADP-Thrombocytopenia (platelet numbers); assay: In vivo ADP-thrombocytopenia; design: species or system rat; details: rats; for In vivo (ADP-Thrombocytopenia) ED50: Table I, infusion right jugular vein five minutes, ADP 0.5 mg/kg; for Anti-Aggregatory in vivo (ADP-Thrombocytopenia) ED50: Table II
Experimental: In vivo ADP-thrombocytopenia
Vehicle/compound in saline is infused for five minutes in the right jugular vein of rats (400-500 g) anesthetized with pentobarbital. Adenosine diphosphate (0.5 mg/kg) in saline is immediately infused for one minute in the left jugular vein. Blood samples are drawn (1:10 into 3.8% citrate) and platelets counted on a Coulter counter and platelet numbers in treated animals are compared to controls. The ED50 (effectiVe dose in 50% of treated animals--μg/kg/minute) for compound activity is calculated from linear regression.

[4] = test system: mean arterial pressure; assay: Hexamethonium Rat hypotensive activity (spontaneously hypertensive rats); assay type: in vivo; details: iv bolus
Experimental: Hexamethonium Rat (Duration)
Spontaneously hypertensive rats (300-400 g.) are anesthetized with 100 mg/kg barbital/25 mg/kg pentobarbital ip. The jugular vein and carotid artery are then cannulated with polyethylene-50 tubing (for drug administration and blood pressure measurement, respectively). A tracheotomy tube is inserted and animals breathe 100% O2 spontaneously. Body temperature is maintained at 37° C. with a thermister probe and heat lamp. Rats are then dosed with 1 mg/kg hexamethonium, iv bolus. After a 10-minute stabilization period, animals are dosed with compound. All compounds are dissolved in either glycine buffer or saline and given in a volume of 1 ml kg. Approximate ED50 doses are administered iv bolus and mean arterial pressure (MAP) is recorded every 30 seconds for 5 minutes, then every minute for a 15-20 minute period or until pressure returns to baseline. Changes in MAP (compared to pre-treatment values) are analyzed with a paired t-test.

[5] = test system: mean arterial pressure; assay: Hypotensive Activity in Normotensive Rats; assay type: in vivo, normotensive Sprague-Dawley rats; details: Table II; for ED (25 mm Hg): Rattus norvegicus, iv, bolus i.v., dose lowering pressure 25 mm Hg, read-out: Blood Pressure ED25; for Therapeutic Index (Blood Pressure ED25 / Anti-Aggregatory): ED25 blood pressure over ED50 ADP-thrombocytopenia
Experimental: Hypotensive Activity in Normotensive Rats.
Normotensive Sprague-Dawley rats (weighing 400 to 500 g) are anesthetized wrth 100 mg/kg barbital/25 mg/kg pentobarbital intraperitoneally. The jugular vein and carotid artery are then cannulated with polyethylene-50 tubing (for drug administration and blood pressure measurement, respectively). A tracheotomy tube is inserted and animals breath 100% O2 spontaneously.
Also, body temperature is maintained at 37° C. with a thermister probe and heat lamp. After a 10 to 15 minute stabilization period, bolus i.v. injections of compound are given and responses (decrease in mean arterial pressure in mm Hg) are recorded. A linear regression analysis is then performed on the data to yield the following information:
EDO --threshold dose or dose at which an effect is first observed.
ED50 --the dose which causes 50% of the maximal response slope of the regression line in mm Hg.
When blood pressure lowering effects are minimal, an ED50 cannot be determined and, instead, an ED25 (dose which lowers the maximal pressure 25 mm Hg) is calculated.

[6] = test system: blood pressure; details: U.S. Pat. No. 4,178,367; cited from earlier work

SMILES: CCCCCC(O)C=CC1C(O)CC2OC(=C(Cl)CCCC(=O)[O-])CC21.[Na+] (stereo not drawn) [5-chloro derivative, 5-chloro-PGI2 sodium salt]
ratio of blood pressure lowering activity and platelet aggregation inhibiting activity [1]: 4
platelet aggregation inhibition in comparison with blood pressure lowering, compared to PGI2 [1]: stronger activities with respect to the inhibition of platelet aggregation in comparison with their blood pressure lowering activities compared to PGI2

SMILES: CCCCCC(O)C=CC1C(O)CC2OC(=CCCCC(=O)[O-])C(F)C21.[Na+] (stereo not drawn) [7-fluoro derivative, 7-fluoro-PGI2 sodium salt]
ratio of blood pressure lowering activity and platelet aggregation inhibiting activity [1]: 32
platelet aggregation inhibition in comparison with blood pressure lowering, compared to PGI2 [1]: stronger activities with respect to the inhibition of platelet aggregation in comparison with their blood pressure lowering activities compared to PGI2

IC50 [2]: 11 nM
SMILES: O=C(O)CCC/C(F)=C1/C[C@@H]2[C@@H](/C=C/[C@@H](O)C3CCCC3)[C@H](O)C[C@@H]2O1 [(5F,15S)]
In vivo (ADP-Thrombocytopenia) ED50 [3]: 0.87 µg/kg/min
Blood Pressure Hexamethonium Rat, Blood Pressure/dose (decrease) ([4]; 10 μg/kg): -104 mm/Hg

SMILES: O=C(O)CCC[C@@H](F)C1=C[C@@H]2[C@@H](/C=C/[C@H](O)C3CCCC3)[C@H](O)C[C@@H]2O1 [(5R,15R), 15-cyclopentyl-6,9α-Epoxy-5R-fluoro-11α,15R-dihydroxy-16,17,18,19,20-pentanorprosta-6,13E-dien-1-oic acid, sodium salt]
IC50 [2]: 600 nM
In vivo (ADP-Thrombocytopenia) ED50 [3]: 2.3 µg/kg/min
Anti-Aggregatory in vivo (ADP-Thrombocytopenia) ED50 [3]: 2.3 µg/kg/min
ED (25 mm Hg) [5]: 0.501 mg/kg
Therapeutic Index (Blood Pressure ED25 / Anti-Aggregatory) [5]: 217.8

SMILES: O=C(O)CCC[C@@H](F)C1=C[C@@H]2[C@@H](/C=C/[C@@H](O)C3CCCC3)[C@H](O)C[C@@H]2O1 [(5R,15S)]
IC50 [2]: 190 nM
In vivo (ADP-Thrombocytopenia) ED50 [3]: 3.0 µg/kg/min
Anti-Aggregatory in vivo (ADP-Thrombocytopenia) ED50 [3]: 3.0 µg/kg/min
ED (25 mm Hg) [5]: 0.0026 mg/kg
Therapeutic Index (Blood Pressure ED25 / Anti-Aggregatory) [5]: 0.87
Blood Pressure Hexamethonium Rat, Blood Pressure/dose (decrease) ([4]; 10 μg/kg): -47 mm/Hg

IC50 [2]: 8600 nM
SMILES: O=C(O)CCC[C@H](F)C1=C[C@@H]2[C@@H](/C=C/[C@H](O)C3CCCC3)[C@H](O)C[C@@H]2O1 [(5S,15R), 15-cyclopentyl-6,9α-Epoxy-5S-fluoro-11α, 15R-dihydroxy-16,17,18,19,20-pentanorprosta-6,13E-dien-1-oic acid, sodium salt]
In vivo (ADP-Thrombocytopenia) ED50 [3]: 3.3 µg/kg/min
Blood Pressure Hexamethonium Rat, Blood Pressure/dose (decrease) ([4]; 100 μg/kg): Inactive

IC50 [2]: 100 nM
SMILES: O=C(O)CCC[C@H](F)C1=C[C@@H]2[C@@H](/C=C/[C@@H](O)C3CCCC3)[C@H](O)C[C@@H]2O1 [(5S,15S)]
In vivo (ADP-Thrombocytopenia) ED50 [3]: 2.3 µg/kg/min
Blood Pressure Hexamethonium Rat, Blood Pressure/dose (decrease) ([4]; 10 μg/kg): -42 mm/Hg

SMILES: CCCC1CCC([C@H](O)/C=C/[C@@H]2[C@H]3C/C(=C/CCCC(=O)OC)O[C@H]3C[C@H]2O)C1 (stereo partly drawn) [(5Z, 13E)-(9α,11α,15S)-6,9-epoxy-11,15-dihydroxy-15-(3 propyl)cyclopentyl-16, 17, 18, 19, 20-pentanorprosta-5,13-dienoic acid methyl ester]
blood pressure lowering activity compared to a 15R derivative [6]: greater blood pressure lowering activity

IC50 [2]: 630 nM
SMILES: O=C(O)CCC/C=C1/C[C@@H]2[C@@H](/C=C/[C@H](O)C3CCCC3)[C@H](O)C[C@@H]2O1 [(15R)]
Blood Pressure Hexamethonium Rat, Blood Pressure/dose (decrease) ([4]; 100 μg/kg): -76 mm/Hg

IC50 [2]: 76 nM
SMILES: O=C(O)CCC/C=C1/C[C@@H]2[C@@H](/C=C/[C@@H](O)C3CCCC3)[C@H](O)C[C@@H]2O1 [(15S)]
Blood Pressure Hexamethonium Rat, Blood Pressure/dose (decrease) ([4]; 0.2 μg/kg): -83 mm/Hg

SMILES: CCCCC[C@H](O)/C=C/[C@@H]1[C@H]2C/C(=C/CCCC(=O)O)O[C@H]2C[C@H]1O [PGI2, (5Z)-9-deoxy-6,9α-epoxy-Δ^5 -PGF1]
ratio of blood pressure lowering activity and platelet aggregation inhibiting activity [1]: 1
